Data from PMC6333442, “Conserved allosteric pathways for activation of TRPV3 revealed through engineering vanilloid-sensitivity” (eLife, 2019).

Columns and labels:
[1] = biological target: T1, mouse TRPV3-4M (F522S/L557M/A560T/Q580E) (Mus musculus, UniProt Q8K424, A560T/F522S/L557M/Q580E); experiment: Two-electrode voltage clamp, TRPV3-4M in oocytes; assay type: cell-based; conditions: RTx 100 nM, 2-APB 3 mM, room temperature, ±60 mV
T1 construct: expressed in transfected cells; host or cells: Xenopus laevis oocytes
T1 sequence (Q8K424 1-791 F522S/L557M/A560T/Q580E): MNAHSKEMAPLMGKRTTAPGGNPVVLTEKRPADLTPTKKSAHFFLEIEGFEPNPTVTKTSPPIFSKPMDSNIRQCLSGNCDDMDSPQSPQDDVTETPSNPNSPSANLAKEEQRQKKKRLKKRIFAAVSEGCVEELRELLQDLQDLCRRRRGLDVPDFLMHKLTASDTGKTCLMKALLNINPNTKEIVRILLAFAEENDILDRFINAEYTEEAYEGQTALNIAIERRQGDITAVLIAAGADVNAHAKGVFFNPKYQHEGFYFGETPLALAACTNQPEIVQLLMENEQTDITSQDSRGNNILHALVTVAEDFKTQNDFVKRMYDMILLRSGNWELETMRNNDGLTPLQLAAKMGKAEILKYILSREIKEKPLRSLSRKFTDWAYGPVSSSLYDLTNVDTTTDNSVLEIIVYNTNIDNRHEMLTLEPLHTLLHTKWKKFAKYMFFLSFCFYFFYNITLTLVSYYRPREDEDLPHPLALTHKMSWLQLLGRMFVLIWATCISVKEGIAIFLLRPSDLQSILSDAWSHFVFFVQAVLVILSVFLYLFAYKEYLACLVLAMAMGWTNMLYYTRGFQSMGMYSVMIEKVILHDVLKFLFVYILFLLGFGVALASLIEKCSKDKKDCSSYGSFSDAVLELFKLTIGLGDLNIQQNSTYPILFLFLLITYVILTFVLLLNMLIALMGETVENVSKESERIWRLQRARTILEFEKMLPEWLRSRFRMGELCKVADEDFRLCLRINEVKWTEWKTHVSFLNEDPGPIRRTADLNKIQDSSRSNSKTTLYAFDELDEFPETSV
Protocol: (§1) All channel constructs were expressed in Xenopus laevis oocytes and studied using the two-electrode voltage clamp technique (TEVC) following 1–4 days of incubation after cRNA injection. The animal care and experimental procedures were performed in accordance with the Guide for the Care and Use of Laboratory Animals and were approved by the Animal Care and Use Committee of the National Institute of Neurological Disorders and Stroke (Animal protocol number 1253–17). Oocytes were removed surgically and incubated with agitation for 1 hr in a solution containing (in mM) 82.5 NaCl, 2.5 KCl, 1 MgCl2, 5 HEPES, pH 7.6 (with NaOH), and collagenase (2 mg/ml; Worthington Biochemical, Lakewood, NJ). Defolliculated oocytes were injected with cRNA for each of the constructs and incubated at 17°C in a solution containing (in mM) 96 NaCl, 2 KCl, 1 MgCl2, 1.8 CaCl2, 5 HEPES, pH 7.6 (with NaOH), and gentamicin (50 μg/ml, GIBCO-BRL, Gaithersburg, MD). Oocyte membrane voltage was controlled using an OC-725C oocyte clamp (Warner Instruments, Hamden, CT). Data were filtered at 1–3 kHz and digitized at 20 kHz using pClamp software (Molecular Devices, Sunnyvale, CA) and a Digidata 1440A digitizer (Axon Instruments). Microelectrode resistances were 0.1–1 MΩ when filled with 3 M KCl. For recording TRP channel currents, the external recording solution contained (in mM) 100 KCl, 10 HEPES, pH 7.6 (with KOH). […]

[2] = test system: TRPV3-6M + L596V, L599F, S613K, D618P, S620E, I644F, Q646E, P651K, L653V, I659L or T660A; experiment: Two-electrode voltage clamp, TRPV3-6M with individual pore mutations (no RTx response); assay type: cell-based, mouse; conditions: RTx 100 nM, 2-APB 3 mM, room temperature
Protocol: as §1

Compound | channel activation (current response) [1] | channel activation (current response) [2]
NCCOB(c1ccccc1)c1ccccc1 [2-APB, 2-aminoethoxydiphenyl borate] | activated | still activated
C=C(C)[C@]12C[C@@H](C)[C@@]34O[C@](Cc5ccccc5)(O[C@@H]1[C@@H]3C=C(COC(=O)Cc1ccc(O)c(OC)c1)C[C@]1(O)C(=O)C(C)=C[C@@H]41)O2 [RTx, resiniferatoxin] | not by 100 nM RTx | RTx-insensitive
